Results taken from PMC9917816, “STS1 and STS2 Phosphatase Inhibitor Baicalein Enhances the Expansion of Hematopoietic and Progenitor Stem Cells and Alleviates 5-Fluorouracil-Induced Myelosuppression” (International Journal of Molecular Sciences, 2023).

Tests used:
[1] = target: T1, STS1-HP (STS1 histidine phosphatase domain) (Homo sapiens, UniProt Q8TF42); experiment: pNPP phosphatase inhibition assay, absorbance at […] nm; type: biochemical; settings: pNPP substrate, pH 7.2, 25 °C, 10 min; name misprinted as baicalin in b9
T1 construct: gene UBASH3B

[2] = target: T1, STS1-HP (STS1 histidine phosphatase domain); experiment: capillary electrophoresis, migration time shift; type: binding; settings: 20 mM PBS, pH 7.0, 20 kV, UV 230 nm
[3] = target: T2, STS2-HP (STS2 histidine phosphatase domain) (Homo sapiens, UniProt P57075); experiment: pNPP phosphatase inhibition assay, absorbance at […] nm; type: biochemical; settings: read-out: % inhibition at 10 μg/mL
T2 construct: gene UBASH3A
T2 sequence (P57075 385-661 limits assumed): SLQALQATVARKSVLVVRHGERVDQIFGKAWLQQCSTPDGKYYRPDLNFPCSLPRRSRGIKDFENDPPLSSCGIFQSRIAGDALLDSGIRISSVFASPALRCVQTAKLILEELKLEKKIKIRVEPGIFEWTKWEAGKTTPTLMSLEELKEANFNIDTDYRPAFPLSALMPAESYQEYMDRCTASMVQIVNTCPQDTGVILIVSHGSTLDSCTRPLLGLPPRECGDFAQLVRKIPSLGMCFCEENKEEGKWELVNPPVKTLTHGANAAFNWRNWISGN

T1 sequence (Q8TF42 380-649 limits assumed): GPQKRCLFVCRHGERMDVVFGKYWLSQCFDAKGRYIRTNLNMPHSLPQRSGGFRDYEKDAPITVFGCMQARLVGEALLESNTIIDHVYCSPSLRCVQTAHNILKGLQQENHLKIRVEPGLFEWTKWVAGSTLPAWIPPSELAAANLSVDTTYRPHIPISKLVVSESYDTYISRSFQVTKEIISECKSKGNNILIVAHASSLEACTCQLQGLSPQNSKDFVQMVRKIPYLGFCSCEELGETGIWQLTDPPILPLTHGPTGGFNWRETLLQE

inhibition at 10 µg/mL [3]: 13.8%
SMILES: O=c1cc(-c2ccccc2)oc2cc(O)c(O)c(O)c12 [baicalein]
% inhibition at 10 μg/mL [1]: (BC) could significantly inhibit the phosphatase activity of STS1 in vitro
capillary electrophoresis, migration time shift [2]: migration times of STS1 and STS2 proteins were markedly delayed when BC was added
